This is an account of results in patent US20090253644A1, “Radiosensitizer” (TOYO SUISAN KAISHA, LTD., priority 2004, published 2009).

Each structure is given as a SMILES string. “Also recorded” adds a separate entry of the source.

Assay [1] deals with human lung cancer cells (A549 cells). The experiment in a line: Animal experiment: A549 tumor-transplanted nude mice, tumor growth delay with X-ray irradiation. The format is in vivo. The conditions noted are these: Exp. Ex. 1-7: X-ray 4 Gy day 0 and day 3, 1 mg/kg i.p. once a day day 0 to 4. Here is the method:
In the present Experimental Example, an experiment was performed in the same manner as in the aforementioned Experimental Examples except that human lung cancer cells (A549 cells) were transplanted into a nude mouse. Details of the experiment will be described below.
Four nude mice (eight weeks old) were randomly assigned to each of four groups. 2.0×10^6 human lung cancer cells (A549 cells) were suspended in PBS (−), and the suspension was transplanted subcutaneously into a right thigh of each mouse. After 45 days, when tumor volume became about 50 mm^3, each mouse was subjected to treatment according to each group. As a radiosensitizer, α-SQMG C18:0 was used as in the aforementioned Experimental Examples. In a single use group of irradiation, X-ray was irradiated two times (at the time of treatment initiation (day 0) and on day 3 after the treatment initiation) at a dose of 4 Gy. In a single use group of α-SQMG C18:0 administration, α-SQMG C18:0 was intraperitoneally administered at a concentration of 1 mg/kg once a day at a total of 5 times from the time of treatment initiation (day 0) to day 4. […] Thereafter, a short diameter and a long diameter of a tumor were measured with a micrometer caliper over a period of 20 days. Tumor volume was calculated according to the following equation, and the tumor growth delaying effect was compared. […]

The subject of assay [2] is Human esophageal cancer cells (TE-8 cells). Put plainly: Animal experiment: TE-8 tumor-transplanted nude mice, tumor growth delay with X-ray irradiation. The format is in vivo. The following applies: Exp. Ex. 1-5: X-ray 8 Gy day 0 and day 4. The method, then:
Five nude mice (eight weeks old) were randomly assigned to each of four groups. Human esophageal cancer cells (TE-8 cells) were transplanted to each mouse in the same manner as the above Experimental Example 1-1. When tumor volume reached 50 mm^3, α-SQMG C18:0 administration and irradiation treatment were performed. In a single use group of irradiation, each mouse was irradiated with X-ray at a dose of 8 Gy two times on day 0 and day 4. In a single use group of α-SQMG C18:0 administration, the sensitizer was intraperitoneally administered at a concentration of 1 mg/kg once a day at a total of 5 times from day 0 to day 4. In a combined use group, each mouse of the group was treated with both of irradiation and α-SQMG C18:0 administration. In the control group, neither irradiation nor α-SQMG C18:0 administration was performed. Thereafter, tumor volume was measured over a period of 51 days in the same manner as the above Experimental Example 1-1.
In addition, an enhancement ratio (ER) was obtained according to the method described in Experimental Example 1-2. […] For this reason, an enhancement ratio was calculated from the number of days until tumor volume reaches 400 mm^3. As a result, ER was 3.25, and it was shown that synergistic effect was extremely high.

Assay [3] has as its system angiogenesis (tube formation). The experiment in a line: Assay by angiogenesis kit (KZ-1000), tube formation. In kind it is cell-based. Here is the method: The anti-angiogenic effect obtained by combined use of 20 μM of α-SQMG C18:0 administration and 4 Gy of ^60Co γ-ray irradiation was investigated using an angiogenesis kit (“angiogenesis kit KZ-1000” of Kurabo Industries Ltd.).
A drug named Suramin is the known substance as a drug suppressing angiogenesis, and it is known that its action is to inhibit a growth factor receptor of a vascular endothelial cell. In the present Example, Suramin was used as a positive control at 50 μM.
As described above, the “theoretical additive point of combined use” is calculated by multiplication, and the theoretical value is compared with an actually measured value.

Where [4] appears, read: 4 Gy 60Co γ-ray + α-SQMG C18:0 20 μM or Suramin 50 μM.

In the case of `CCCCCCCCCCCCCCCCCC(=O)OCC(O)CO[C@H]1O[C@H](CS(=O)(=O)[O-])[C@@H](O)[C@H](O)[C@H]1O.[Na+]` (stereo partly drawn) [α-SQMG C18:0, 3-O-(6-deoxy-6-sulfo-α-D-glucopyranosyl)-1-O-stearoyl-glycerol sodium salt], the “enhancement ratio (ER)” value in assay [1] is “cannot be calculated”; in assay [2] (1 mg/kg i.p. day 0 to 4, calculated from days until tumor volume reaches 400 mm^3), 3.25. For the same compound, the “anti-tumor effect (tumor volume), combined use with irradiation” value in assay [1] (sodium salt, 1 mg/kg) was “anti-tumor effect exceeding the anti-tumor effect attained by irradiation alone; also recorded: increase in tumor volume is scarcely seen”; in assay [2] (1 mg/kg i.p. once a day day 0 to 4) it was “anti-tumor effect far exceeding the anti-tumor effect attained by irradiation”. The “tube formation rate, Actually measured value, combined use” value in assay [3] (setting [4]) came out at 0.0762. Further, the “tube formation rate, Theoretical value (theoretical additive point of combined use)” value in assay [3] (setting [4]) worked out at 0.467. For the same compound, the “tube formation rate, use alone” value in assay [3] (α-SQMG C18:0 20 μM, Suramin 50 μM, no irradiation) is listed as 0.7229.
